According to patent US11998539B2, “Substituted aminoquinolones as DGKalpha inhibitors for immune activation” (Bayer Aktiengesellschaft, priority 2019, dated 2024):
pIC50: −log10 of the molar value.

Experiments:
[1] = tested on: intracranially injected GBM tumors; settings: concurrent administration; Dominguez et al. 2013; cited from earlier work
DGKα [2] = target: T1, DGKα (Homo sapiens (Human), UniProt P23743); settings: prior art; cited from earlier work
Target sequence in this assay (P23743 whole entry, species assumed): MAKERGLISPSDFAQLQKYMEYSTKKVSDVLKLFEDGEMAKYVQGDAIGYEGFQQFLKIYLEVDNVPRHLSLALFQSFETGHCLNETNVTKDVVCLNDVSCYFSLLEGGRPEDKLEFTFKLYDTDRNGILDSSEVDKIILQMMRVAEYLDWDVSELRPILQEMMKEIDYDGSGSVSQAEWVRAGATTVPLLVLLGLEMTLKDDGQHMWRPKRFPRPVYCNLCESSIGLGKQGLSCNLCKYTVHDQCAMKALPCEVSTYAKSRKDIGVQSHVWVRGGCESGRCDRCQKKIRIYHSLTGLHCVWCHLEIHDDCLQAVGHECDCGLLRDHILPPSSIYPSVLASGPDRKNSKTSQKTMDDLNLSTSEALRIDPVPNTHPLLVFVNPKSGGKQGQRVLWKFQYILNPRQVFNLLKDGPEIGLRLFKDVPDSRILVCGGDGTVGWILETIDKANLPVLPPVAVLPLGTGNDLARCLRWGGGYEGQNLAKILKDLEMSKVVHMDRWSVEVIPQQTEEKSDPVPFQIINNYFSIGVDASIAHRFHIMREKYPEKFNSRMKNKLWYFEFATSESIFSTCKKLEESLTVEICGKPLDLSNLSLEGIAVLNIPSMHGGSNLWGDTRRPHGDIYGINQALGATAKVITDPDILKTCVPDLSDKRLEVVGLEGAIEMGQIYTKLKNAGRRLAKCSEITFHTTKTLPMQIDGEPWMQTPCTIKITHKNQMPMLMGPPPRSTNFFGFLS

DGKα [3] = target: T1, DGKα; assay: Human DGKα kinase activity inhibition assay (ADP-Glo); format: biochemical; settings: recombinant full-length human DGKα, 55 μM ATP, 7 μM 1,2-dioleoyl-sn-glycerol, read-out: IC50 values of examples in in vitro human DGKa kinase activity inhibition assays
Method in brief: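 Activity was measured as ADP production, detected by luciferase luminescence after removal of unused ATP. The enzyme was baculovirus-expressed full-length human DGKα with a C-terminal FLAG tag. The substrate was 1,2-dioleoyl-sn-glycerol in detergent micelles, and compounds came from 100× DMSO solutions.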
Target sequence in this assay (P23743 other isoform, or with tags, fused parts or gaps): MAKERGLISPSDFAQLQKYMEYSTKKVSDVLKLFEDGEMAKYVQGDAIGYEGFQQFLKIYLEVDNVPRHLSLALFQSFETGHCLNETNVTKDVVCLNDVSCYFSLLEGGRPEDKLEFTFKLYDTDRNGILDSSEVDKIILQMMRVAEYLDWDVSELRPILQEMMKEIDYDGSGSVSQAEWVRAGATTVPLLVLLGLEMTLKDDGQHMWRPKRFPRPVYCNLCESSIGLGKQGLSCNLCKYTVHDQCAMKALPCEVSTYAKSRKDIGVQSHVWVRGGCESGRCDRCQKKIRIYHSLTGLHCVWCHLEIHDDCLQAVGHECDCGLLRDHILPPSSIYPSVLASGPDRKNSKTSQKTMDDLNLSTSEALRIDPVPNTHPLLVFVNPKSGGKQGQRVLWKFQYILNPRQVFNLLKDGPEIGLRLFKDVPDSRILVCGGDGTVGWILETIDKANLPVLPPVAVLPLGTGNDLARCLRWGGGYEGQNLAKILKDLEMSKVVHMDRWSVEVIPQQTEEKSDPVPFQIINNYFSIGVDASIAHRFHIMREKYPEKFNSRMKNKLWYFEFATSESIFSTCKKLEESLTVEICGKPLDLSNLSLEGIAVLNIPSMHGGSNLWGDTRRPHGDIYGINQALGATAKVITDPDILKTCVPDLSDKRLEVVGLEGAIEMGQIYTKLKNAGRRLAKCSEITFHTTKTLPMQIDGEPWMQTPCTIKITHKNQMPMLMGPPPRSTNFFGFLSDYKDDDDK

SMILES	pIC50 (DGKα [3])	other results
Cc1nc2sccn2c(=O)c1CCN1CCC(=C(c2ccccc2)c2ccc(F)cc2)CC1 [Example R59022]		growth of intracranially injected GBM tumors [1]: decreased growth
O=C1/C(=C\C=C\c2ccco2)SC(=S)N1NS(=O)(=O)c1ccccc1 [CU-3]		inhibitory activity on DGKα (DGKα [2]): sub-micromolar
Cc1nc2sccn2c(=O)c1CCN1CCC(=C(c2ccc(F)cc2)c2ccc(F)cc2)CC1 [Ritanserin]		inhibitory activity on DGKα (DGKα [2]): comparable activity
Cc1ccc2c(C(=O)CN3CCN(C(=O)c4ccco4)CC3)c(C)[nH]c2c1 [AMB639752]		inhibitory activity on DGKα (DGKα [2]): micromolar
Cn1c(=O)c(C#N)c(N2CCC(c3nc4ccccc4o3)CC2)c2cc(F)ccc21 [Example 206, 4-[4-(1,3-benzoxazol-2-yl)piperidin-1-yl]-6-fluoro-1-methyl-2-oxo-1,2-dihydroquinoline-3-carbonitrile]	9.10	
Cc1ccc2oc(C3(C)CCN(c4c(C#N)c(=O)n(C)c5c(Cl)cccc45)CC3)nc2c1 [Example 231, 8-chloro-1-methyl-4-[4-methyl-4-(5-methyl-1,3-benzoxazol-2-yl)piperidin-1-yl]-2-oxo-1,2-dihydroquinoline-3-carbonitrile]	6.97	
COC1(c2nc3ccccc3o2)CCN(c2c(C#N)c(=O)n(C)c3ccccc23)CC1 [Example 390, 4-[4-(1,3-benzoxazol-2-yl)-4-methoxypiperidin-1-yl]-1-methyl-2-oxo-1,2-dihydroquinoline-3-carbonitrile]	8.46	
Cc1ccc2oc(C3(C)CCN(c4c(C#N)c(=O)n(C)c5ccc(OC6CC6)cc45)CC3)nc2c1 [Example 274, 6-(cyclopropyloxy)-1-methyl-4-[4-methyl-4-(5-methyl-1,3-benzoxazol-2-yl)piperidin-1-yl]-2-oxo-1,2-dihydroquinoline-3-carbonitrile]	6.82	
Cn1c(=O)c(C#N)c(N2CCC(C)(c3nc4ccccc4o3)CC2)c2ccc(Cl)cc21 [Example 226, 4-[4-(1,3-benzoxazol-2-yl)-4-methylpiperidin-1-yl]-7-chloro-1-methyl-2-oxo-1,2-dihydroquinoline-3-carbonitrile]	8.89	
Cc1ccc2oc(C3CCN(c4c(C(N)=O)c(=O)n(C)c5ccccc45)CC3)nc2c1 [Example 107, 1-methyl-4-[4-(5-methyl-1,3-benzoxazol-2-yl)piperidin-1-yl]-2-oxo-1,2-dihydroquinoline-3-carboxamide]	8.64	
COc1ccc2c(N3CCC(C)(c4nc5cc(C)ccc5o4)CC3)c(C#N)c(=O)n(C)c2c1 [Example 248, 7-methoxy-1-methyl-4-[4-methyl-4-(5-methyl-1,3-benzoxazol-2-yl)piperidin-1-yl]-2-oxo-1,2-dihydroquinoline-3-carbonitrile]	8.16	
Cc1ccccc1-c1nnc(C2CCN(c3c(C(N)=O)c(=O)n(C)c4ccc(Br)cc34)CC2)o1 [Example 525, 6-bromo-1-methyl-4-{4-[5-(2-methylphenyl)-1,3,4-oxadiazol-2-yl]piperidin-1-yl}-2-oxo-1,2-dihydroquinoline-3-carboxamide]	7.41	
Cc1ccc2c(c1)c(N1CCC(c3nc4cc(Cl)ccc4o3)CC1)c(C#N)c(=O)n2C [Example 185, 4-[4-(5-chloro-1,3-benzoxazol-2-yl)piperidin-1-yl]-1,6-dimethyl-2-oxo-1,2-dihydroquinoline-3-carbonitrile]	8.54	
